Experimental data taken from paper PMC7531004, “Discovery of gramicidin A analogues with altered activities by multidimensional screening of a one-bead-one-compound library” (Nature Communications, 2020).
Where a SMILES comes first, the peptide text is derived from it. [ ]: non-standard residue; d: D form. The star is where a group is joined. NHCH2CH2OH = OCCN*; For = O=C*

Tests used:
[1] = H+/Na+ transport assay of bead-derived peptides (one-point); assay type: biochemical; parameters: key: relative activity; mean of two control wells = 1.00; details: bead-derived peptide solution, EYPC/EYPG LUVs;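 further: relative to parent gramicidin A activity set to 1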
Experimental: (§1) Each type of assay must be simplified and miniaturized to assess the activities of the library peptides in a 96-well format for the high-throughput screening.
H+/Na+ transport assay of bead-derived peptides.1,2,3 Trisodium 8-hydroxypyrene-1,3,6-trisulfonate
mini-extruder apparatus (Avanti Polar Lipids).
28.9 µmol) in CHCl3 (225 µL) and egg yolk phosphatidylglycerol (1.20 mg, 1.56 µmol) in CHCl3 (60.0 µL)
The thin film was hydrated and
1.0 mM pyranine) by sonication.
A suspension of the LUVs was immediately
used for the H+/Na+ transport assay.
The diluted solution of peptide
flat-bottom 96-well plate (655086, Greiner bio-one).
was vortexed at room temperature for 30 min.
(5/95, 3.0 µL) and the LUV suspension were mixed in each plate to determine 100% lysis. The untreated
LUV suspension was used to determine 0% lysis.
normalized against 100% lysis by Triton X-100 (Imax) and 0% lysis (I0) as following, where Ix is the
fluorescence intensity (Supplementary Equation 2).
I = 100 × (Ix – I0) / (Imax – I0) (2)
The mean value of the two control wells was set to 1.00. […]

[2] = tested on: P388 mouse leukemia cells; details: 92 h
Text: Each type of assay must be simplified and miniaturized to assess the activities of the library peptides in a 96-well format for the high-throughput screening. […]
Mammalian cytotoxicity assay of bead-derived peptides . P388 cells were obtained from Institute of
Development Aging and Cancer (Tohoku University). The cells were maintained with growth medium
[RPMI1640 with phenol red ( Fujifilm Wako Pure Chemical) supplemented with 10% heat -inactivated fetal
bovine serum, pe nicillin G (100 units/mL), and streptomycin (100 µg/mL)] under atmosphere of 5% CO 2 at
The collected cells were resuspended into
the growth medium at 2 × 10^4 cells/mL. The stock solutions of the peptide library were 250-fold diluted
with the growth medium. Aliquots of the medium (100 µL) containing peptides and the latter medium
containing P388 cells (100 µL) were mixed in a 96-well cell culture plate (TR5003, TrueLine). The final
concentration of P388 cells was 1 × 10^4 cells/mL. After incubation under atmosphere of 5% CO2 at 37 °C
for 92 h, the numbers of viable cells were determined by
2-(4-iodophenyl)-3-(4-nitrophenyl)-5-(2,4-disulfophenyl)-2H-tetrazolium, monosodium salt (WST-1) assay.
A solution of 1-methoxy-5-methylphenazinium methyl sulfate (1-methoxy PMS) and WST-1 in the growth
medium (1-methoxy PMS 0.70 mg/mL in Milli-Q/WST-1 3.6 mg/mL in pH 7.4 HEPES buffer = 1/9) was
added to each well of the plate (10.0 µL/well). The plate was incubated for 4 h under atmosphere of 5% CO2
at 37 °C. The absorbance of each well at 415 nm was measured using a Benchmark microplate reader
(Bio-Rad). The cytotoxicities were evaluated as cell viability (%). […]

[3] = tested on: Streptococcus pyogenes SSI-9; assay: Antibacterial activity assay of bead-derived peptides (three concentrations); assay type: cell-based; parameters: key: +++: inhibition by the 640-fold diluted peptide solution; ++: inhibition by the 160-fold diluted solution; +: inhibition by the 40-fold diluted solution; -: no inhibition; details: S. pyogenes, bead-derived peptide solution, three concentrations
Experimental: as §1
Next, the peptides in groups A and B were subjected to the antibacterial assay and structural determination. Three peptide concentrations were applied to evaluate the growth inhibition of S. pyogenes and determine the antibacterial activity. […] Finally, the structures of the peptides were determined. […]
Antibacterial activity assay of bead-derived peptides. The stock solution of the peptide library was 4- and […]
16-fold diluted with DMSO. The non-diluted stock solution, 4-fold diluted solution, and 16-fold diluted […]
solution were transferred to the 96-well round-bottom plate (3367, Corning, 1.0 µL/well). To the solution of […]
peptide in each well was added a suspension of Streptococcus pyogenes SSI-9 strain in cation adjusted […]
Mueller Hinton Broth [40.0 µL, 2 × 10^5 colony forming units (CFU), 21 g/L Mueller Hinton Broth (Difco), 50 […]
mg/L Ca2+ (adjusted with CaCl2•2H2O), and 25 mg/L Mg2+ (adjusted with MgCl2•6H2O)] supplemented with […]
5% laked horse blood (Nippon Biotest Laboratories). The plate was incubated at 37 °C for 18 h, and the precipitation of the grown cells was examined. […]

| Compound | H+/Na+ transport activity normalized against the value of 1 (1.00) [1] | cell viability/% [2] [%] | antibacterial activity [3] |
| --- | --- | --- | --- |
| CC(C)C[C@@H](NC(=O)[C@H](C)NC(=O)CNC(=O)[C@@H](NC=O)C(C)C)C(=O)N[C@@H](C)C(=O)N[C@@H](C(=O)N[C@H](C(=O)N[C@@H](C(=O)N[C@@H](Cc1c[nH]c2ccccc12)C(=O)N[C@@H](C(=O)N[C@@H](Cc1c[nH]c2ccccc12)C(=O)N[C@H](CC(C)C)C(=O)N[C@@H](Cc1c[nH]c2ccccc12)C(=O)N[C@@H](C(=O)N[C@@H](Cc1c[nH]c2ccccc12)C(=O)NCCO)C(C)C)C(C)C)C(C)C)C(C)C)C(C)C [compound 1289] (For-VGA[dL]A[dV]V[dV]W[dV]W[dL]W[dV]W-NHCH2CH2OH) | 1.03 | 95.6 | + |
| CC(C)C[C@@H](NC(=O)[C@H](C)NC(=O)[C@H](NC(=O)[C@H](C)NC(=O)CNC(=O)[C@@H](NC=O)C(C)C)C(C)C)C(=O)N[C@H](C(=O)N[C@H](CC(C)C)C(=O)N[C@@H](Cc1c[nH]c2ccccc12)C(=O)N[C@H](CC(C)C)C(=O)N[C@@H](Cc1c[nH]c2ccccc12)C(=O)N[C@H](CC(C)C)C(=O)N[C@@H](Cc1c[nH]c2ccccc12)C(=O)N[C@H](CC(C)C)C(=O)N[C@@H](Cc1c[nH]c2ccccc12)C(=O)NCCO)C(C)C [compound 1343] (For-VGA[dV]A[dL]V[dL]W[dL]W[dL]W[dL]W-NHCH2CH2OH) | 1.02 | 4.0 | - |
| CNC(=O)C[C@@H](NC(=O)[C@@H](NC(=O)[C@@H](CC(C)C)NC(=O)[C@H](C)NC(=O)[C@@H](CC(C)C)NC(=O)[C@H](C)NC(=O)CNC(=O)[C@@H](NC=O)C(C)C)C(C)C)C(=O)N[C@@H](Cc1c[nH]c2ccccc12)C(=O)N[C@H](CC(C)C)C(=O)N[C@@H](Cc1c[nH]c2ccccc12)C(=O)N[C@H](CC(C)C)C(=O)N[C@@H](Cc1c[nH]c2ccccc12)C(=O)N[C@H](CC(C)C)C(=O)N[C@@H](Cc1c[nH]c2ccccc12)C(=O)NCCO [compound 1400] (For-VGA[dL]A[dL]V[dD](NHMe)W[dL]W[dL]W[dL]W-NHCH2CH2OH) | 1.10 | 72.7 | - |
| CNC(=O)C[C@@H](NC(=O)[C@@H](NC(=O)[C@@H](CC(C)C)NC(=O)[C@H](C)NC(=O)[C@@H](CC(C)C)NC(=O)[C@H](C)NC(=O)CNC(=O)[C@@H](NC=O)C(C)C)C(C)C)C(=O)N[C@@H](Cc1c[nH]c2ccccc12)C(=O)N[C@H](CC(C)C)C(=O)N[C@@H](Cc1c[nH]c2ccccc12)C(=O)N[C@@H](C(=O)N[C@@H](Cc1c[nH]c2ccccc12)C(=O)N[C@H](CC(C)C)C(=O)N[C@@H](Cc1c[nH]c2ccccc12)C(=O)NCCO)C(C)C [compound 1479] (For-VGA[dL]A[dL]V[dD](NHMe)W[dL]W[dV]W[dL]W-NHCH2CH2OH) | 1.19 | 100.0 | - |
| CC(C)C[C@@H](NC(=O)[C@H](C)NC(=O)[C@H](NC(=O)[C@H](C)NC(=O)CNC(=O)[C@@H](NC=O)C(C)C)[C@H](C)O)C(=O)N[C@H](C(=O)N[C@H](CC(C)C)C(=O)N[C@@H](Cc1c[nH]c2ccccc12)C(=O)N[C@H](CC(C)C)C(=O)N[C@@H](Cc1c[nH]c2ccccc12)C(=O)N[C@@H](C(=O)N[C@@H](Cc1c[nH]c2ccccc12)C(=O)N[C@H](CC(C)C)C(=O)N[C@@H](Cc1c[nH]c2ccccc12)C(=O)NCCO)C(C)C)C(C)C [compound 1516] (For-VGA[dT]A[dL]V[dL]W[dL]W[dV]W[dL]W-NHCH2CH2OH) | 1.06 | 100.0 | - |
| CC(C)C[C@@H](NC(=O)[C@H](C)NC(=O)CNC(=O)[C@@H](NC=O)C(C)C)C(=O)N[C@@H](C)C(=O)N[C@@H](C(=O)N[C@H](C(=O)N[C@H](CC(C)C)C(=O)N[C@@H](Cc1c[nH]c2ccccc12)C(=O)N[C@@H](C(=O)N[C@@H](Cc1c[nH]c2ccccc12)C(=O)N[C@H](CC(C)C)C(=O)N[C@@H](Cc1c[nH]c2ccccc12)C(=O)N[C@@H](C(=O)N[C@@H](Cc1c[nH]c2ccccc12)C(=O)NCCO)[C@H](C)O)C(C)C)C(C)C)C(C)C [compound 1522] (For-VGA[dL]A[dV]V[dL]W[dV]W[dL]W[dT]W-NHCH2CH2OH) | 1.03 | 100.0 | - |
| CC(C)C[C@@H](NC(=O)[C@H](C)NC(=O)CNC(=O)[C@@H](NC=O)C(C)C)C(=O)N[C@@H](C)C(=O)N[C@H](CC(C)C)C(=O)N[C@H](C(=O)N[C@H](CC(C)C)C(=O)N[C@@H](Cc1c[nH]c2ccccc12)C(=O)N[C@@H](C(=O)N[C@@H](Cc1c[nH]c2ccccc12)C(=O)N[C@H](CC(C)C)C(=O)N[C@@H](Cc1c[nH]c2ccccc12)C(=O)N[C@@H](C(=O)N[C@@H](Cc1c[nH]c2ccccc12)C(=O)NCCO)C(C)C)C(C)C)C(C)C [compound 1751] (For-VGA[dL]A[dL]V[dL]W[dV]W[dL]W[dV]W-NHCH2CH2OH) | 1.05 | 0.0 | - |
| CC(C)C[C@@H](NC(=O)[C@H](Cc1c[nH]c2ccccc12)NC(=O)[C@H](NC(=O)[C@H](Cc1c[nH]c2ccccc12)NC(=O)[C@@H](CC(C)C)NC(=O)[C@H](Cc1c[nH]c2ccccc12)NC(=O)[C@H](NC(=O)[C@@H](NC(=O)[C@H](NC(=O)[C@H](C)NC(=O)[C@H](NC(=O)[C@H](C)NC(=O)CNC(=O)[C@@H](NC=O)C(C)C)C(C)C)C(C)C)C(C)C)C(C)C)C(C)C)C(=O)N[C@@H](Cc1c[nH]c2ccccc12)C(=O)NCCO [compound 1844] (For-VGA[dV]A[dV]V[dV]W[dL]W[dV]W[dL]W-NHCH2CH2OH) | 1.18 | 47.9 | ++ |
| CC(C)C[C@@H](NC(=O)[C@H](Cc1c[nH]c2ccccc12)NC(=O)[C@H](NC(=O)[C@H](Cc1c[nH]c2ccccc12)NC(=O)[C@@H](CC(C)C)NC(=O)[C@H](Cc1c[nH]c2ccccc12)NC(=O)[C@H](NC(=O)[C@@H](NC(=O)[C@H](NC(=O)[C@H](C)NC(=O)[C@H](NC(=O)[C@H](C)NC(=O)CNC(=O)[C@@H](NC=O)C(C)C)C(C)C)C(C)C)C(C)C)C(C)C)[C@H](C)O)C(=O)N[C@@H](Cc1c[nH]c2ccccc12)C(=O)NCCO [compound 1849] (For-VGA[dV]A[dV]V[dV]W[dL]W[dT]W[dL]W-NHCH2CH2OH) | 1.07 | 100.0 | + |
| CC(C)C[C@@H](NC(=O)[C@@H](NC(=O)[C@H](NC(=O)[C@H](C)NC(=O)[C@H](NC(=O)[C@H](C)NC(=O)CNC(=O)[C@@H](NC=O)C(C)C)C(C)C)C(C)C)C(C)C)C(=O)N[C@@H](Cc1c[nH]c2ccccc12)C(=O)N[C@@H](C(=O)N[C@@H](Cc1c[nH]c2ccccc12)C(=O)N[C@@H](C(=O)N[C@@H](Cc1c[nH]c2ccccc12)C(=O)N[C@@H](C(=O)N[C@@H](Cc1c[nH]c2ccccc12)C(=O)NCCO)C(C)C)C(C)C)C(C)C [compound 1873] (For-VGA[dV]A[dV]V[dL]W[dV]W[dV]W[dV]W-NHCH2CH2OH) | 1.09 | 100.0 | - |
